Laboratory results published in US9220705B2, “Method of treating colorectal cancer” (priority 2013, dated 2015).

Assays:
[1] = tested on: 2008/C13*, LoVo/LoVo-OXP, LoVo MDR; test: MTT cytotoxicity, comparison over the Table 2 cell lines; assay type: cell-based, human; conditions: 2008 ovarian and LoVo colon sensitive cells
Experimental: (§1) After 24 h, the medium was removed and replaced with a fresh one containing the compound to be studied, at the appropriate concentration, dissolved in 0.9% sodium chloride solution just before use. Triplicate cultures were established for each treatment. After 72 h, each well was treated with […] of a 5 mg mL^−1 MTT saline solution and, after 5 h of incubation, 100 μL of a sodium dodecylsulfate (SDS) solution in 0.01 M HCl were added. After an overnight incubation, the inhibition of cell growth induced by the tested complexes was determined by measuring the absorbance of each well at 570 nm using a BioRad 680 microplate reader. Mean absorbance for each drug dose was expressed as percentage of the control and plotted vs. drug concentration. Dose-response curves were fitted and IC50 values were calculated with four parameter logistic model (4PL).
A LoVo cell line retaining a multidrug resistance phenotype was also considered (LoVo MDR). Cross-resistance profiles were evaluated by means of the resistance factor (RF), which is defined as the ratio between the IC50 value for the resistant cells and that arising from the sensitive cells (Table 2).

[2] = tested on: panel of human tumor cell lines (A431, MCF-7, A375, HCT-15, SW480, CaCo-2, DLD-1); test: MTT cytotoxicity, comparison over the Table 1 panel; assay type: cell-based; conditions: average over seven cell lines of Table 1
Experimental: as §1
The cytotoxicity was evaluated by means of the MTT test for 72 h treatment with increasing concentrations of the tested compounds.

## O=C1[O][Pt]2([NH][C@H]3CC[C@H](CC3)[NH]2)[O]C1=O [Compound 3, [SP-4-2-(cis)]-(1,4,cyclohexanediamine-N,N′)[ethanedioato(2)-O,O^1]platinum]
[1]
  cytotoxic activity towards sensitive lines compared with reference drugs: less effective than oxaliplatin and cisplatin towards ovarian sensitive cell line and rather similar to cisplatin against LoVo colon cancer cells
[2]
  average cytotoxic activity compared with reference drugs: lower than that of oxaliplatin and comparable to that of compound 2 and cisplatin

## O=C([O][Pt]1([Cl])([Cl])([O]C(=O)C(Cl)Cl)[NH][C@H]2CC[C@H](CC2)[NH]1)C(Cl)Cl [Compound 5, (OC-6-33)-dichloro(cis-1,4-cyclohexanediamine-N,N′)bisdichloroacetateplatinum]
[1]
  cytotoxic activity towards sensitive lines compared with reference drugs: better than cisplatin and similar to oxaliplatin
[2]
  average cytotoxic activity compared with reference drugs: rather similar to oxaliplatin

## O=C1[O][Pt]2([NH]C3CCC(CC3)[NH]2)[O]C(=O)C12CCC2 [Compound 6, [SP-4-2-(cis)]-(1,4-cyclohexanediamine-N,N′)[cyclobutane-1,1-dicarboxylate-O,O′]platinum]
[1]
  cytotoxic activity towards sensitive lines compared with reference drugs: less effective than oxaliplatin and cisplatin
[2]
  average cytotoxic activity compared with reference drugs: lower than oxaliplatin and cisplatin
